Test results: patent US20100075965A1, “PI3 KINASE INHIBITORS AND METHODS OF THEIR USE” (Novartis AG, priority 2006, published 2010)
Like-named read-outs stand apart in the source and are kept apart here.

How the values were obtained:
[1] = system: pSer473-Akt in A2780 cells; test: pSer473 Akt assay to monitor PI3K pathway in A2780 cells (MSD); format: cell-based; details: Homo sapiens
Procedure: In this method, an assay for measuring the PI3K-mediated pSer^473-Akt status after treatment with representative inhibitor compounds of the preferred embodiments is described.
A2780 cells were cultured in DMEM supplemented with 10% FBS, L-glutamine, sodium pyruvate, and antibiotics. Cells were plated in the same medium at a density of 15,000 cells per well into 96 well tissue culture plates, with outside wells vacant, and allowed to adhere overnight.
Test compounds supplied in DMSO were diluted further into DMSO at 500 times the desired final concentrations before dilution into culture media to 2 times the final concentrations. Equal volumes of 2× compounds in media were added to the cells in 96 well plates and incubated at 37° C. for one hour. The media and compounds were then removed, the plates chilled and cells lysed in a lysis buffer (150 mM NaCl, 20 mM Tris pH 7.5, 1 mM EDTA, 1 mM EGTA, 1% Triton X-100) supplemented with phosphatase and protease inhibitors. After thorough mixing, lysates were transferred to both pSer473Akt and total Akt assay plates from Meso Scale Discovery (MSD), and incubated overnight with shaking at 4° C. The plates were washed with 1×MSD wash buffer and the captured analytes detected with secondary antibodies. After incubation with the secondary antibody at room temperature for 1-2 hours, the plates were washed again and 1.5× concentration of Read Buffer T (MSD) was added to the wells.
The assays were read on a SECTOR Imager 6000 instrument (Meso Scale Discovery). Ratios of the signal from pSer473Akt and total Akt assays were used to correct for any variability and the percent inhibition of pSer473Akt from the total signal seen in cells treated with compound versus DMSO alone was calculated and used to determine EC50 values for each compound as shown in Tables 1 and 2 in the column labeled “A2780 pAKT473 EC50”.

A2780 cells = test: Viability assay in A2780 (Cell Titer Glo); format: cell-based, human; details: Homo sapiens, read-out: A2780 Cell prolif. EC50
Procedure, shortened: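 A2780 cells (1,000/well, DMEM + 10% FBS) were exposed to 3-fold serial dilutions of compound for 72 hrs at 37° C, 5% CO2. Viable cells were read by Cell Titer Glo luminescence, in duplicate, and EC50 values were derived from the curves.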

PI3 K Alpha = PI3 K Alpha (Homo sapiens, UniProt P42336); test: PI3 kinase phosphorylation assays (homogenous solution phase, one step solid phase, ATP depletion/KinaseGlo); format: biochemical
[2] = A2780 cells, read-out: A2780 pAKT 473 EC50
[3] = 1 h, A2780 cells, one hour incubation, read-out: A2780 pAKT473 EC50
[4] = ATP depletion assay, read-out: PI3 K Alpha IC50

Chain of PI3 K Alpha (P42336 whole entry): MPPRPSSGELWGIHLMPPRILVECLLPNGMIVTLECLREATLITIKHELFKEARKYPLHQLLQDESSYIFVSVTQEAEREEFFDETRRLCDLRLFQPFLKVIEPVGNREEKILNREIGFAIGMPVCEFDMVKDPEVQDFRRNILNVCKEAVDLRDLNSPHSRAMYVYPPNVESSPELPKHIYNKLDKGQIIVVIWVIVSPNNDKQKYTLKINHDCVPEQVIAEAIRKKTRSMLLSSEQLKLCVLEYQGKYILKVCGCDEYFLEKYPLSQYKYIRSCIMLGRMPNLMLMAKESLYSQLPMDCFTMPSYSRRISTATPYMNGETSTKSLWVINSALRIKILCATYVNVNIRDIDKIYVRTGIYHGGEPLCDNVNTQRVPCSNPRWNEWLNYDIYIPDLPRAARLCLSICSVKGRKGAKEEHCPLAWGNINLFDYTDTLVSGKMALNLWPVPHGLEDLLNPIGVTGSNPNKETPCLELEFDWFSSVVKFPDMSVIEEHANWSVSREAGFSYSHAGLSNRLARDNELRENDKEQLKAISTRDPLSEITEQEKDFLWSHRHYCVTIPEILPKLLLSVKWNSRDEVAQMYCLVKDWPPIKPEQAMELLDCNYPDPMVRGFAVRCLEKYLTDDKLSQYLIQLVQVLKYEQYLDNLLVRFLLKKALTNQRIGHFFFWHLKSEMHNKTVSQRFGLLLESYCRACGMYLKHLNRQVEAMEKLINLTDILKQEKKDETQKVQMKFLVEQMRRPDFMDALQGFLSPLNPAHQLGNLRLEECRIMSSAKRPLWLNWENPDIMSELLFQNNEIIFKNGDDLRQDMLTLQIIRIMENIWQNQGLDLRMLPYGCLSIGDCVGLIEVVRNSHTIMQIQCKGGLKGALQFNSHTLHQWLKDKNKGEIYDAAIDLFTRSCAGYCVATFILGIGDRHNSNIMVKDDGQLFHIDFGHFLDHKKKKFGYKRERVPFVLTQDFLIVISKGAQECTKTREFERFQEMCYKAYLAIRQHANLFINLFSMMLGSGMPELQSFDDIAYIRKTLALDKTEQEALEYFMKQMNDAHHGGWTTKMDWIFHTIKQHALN
Chain of PI3 K Alpha (P27986 whole entry partner): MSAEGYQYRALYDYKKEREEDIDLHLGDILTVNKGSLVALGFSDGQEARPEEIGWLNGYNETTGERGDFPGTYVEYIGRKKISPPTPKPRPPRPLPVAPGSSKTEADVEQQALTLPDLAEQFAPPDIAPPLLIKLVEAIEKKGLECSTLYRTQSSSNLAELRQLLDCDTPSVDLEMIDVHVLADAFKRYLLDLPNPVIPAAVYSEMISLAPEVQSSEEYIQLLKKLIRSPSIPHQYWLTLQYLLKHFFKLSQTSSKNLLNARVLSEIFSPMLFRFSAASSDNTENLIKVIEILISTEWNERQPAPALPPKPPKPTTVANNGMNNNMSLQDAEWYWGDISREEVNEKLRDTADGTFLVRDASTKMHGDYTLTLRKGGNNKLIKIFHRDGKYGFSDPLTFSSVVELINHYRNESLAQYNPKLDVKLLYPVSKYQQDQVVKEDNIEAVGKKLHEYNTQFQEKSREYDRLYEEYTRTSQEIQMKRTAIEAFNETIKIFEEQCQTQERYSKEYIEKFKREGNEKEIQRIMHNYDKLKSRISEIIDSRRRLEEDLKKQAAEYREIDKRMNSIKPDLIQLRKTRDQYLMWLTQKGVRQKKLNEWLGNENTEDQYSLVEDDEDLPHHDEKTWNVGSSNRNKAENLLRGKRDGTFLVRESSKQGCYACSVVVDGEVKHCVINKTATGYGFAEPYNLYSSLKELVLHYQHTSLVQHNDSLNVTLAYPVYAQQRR

Question: Which EC50 [1, 2] does the source give for Nc1ccc(-c2ccc3nc(NC(=O)C(F)(F)F)cn3c2)cn1 [Example 1, N-[6-(6-Amino-pyridin-3-yl)-imidazo[1,2-a]pyridin-2-yl]-2,2,2-trifluoro-acetamide] here?
Answer: < 10 µM

Question: What about the EC50 (A2780 cells; A2780 cells) of the same compound?
Answer: < 25 µM

Question: What does the source list for Nc1ncc(-c2ccc3nc(NC(=O)C(F)(F)F)cn3c2)cn1 [Example 2, N-[6-(2-Amino-pyrimidin-5-yl)-imidazo[1,2-a]pyridin-2-yl]-2,2,2-trifluoro-acetamide]?
Answer: IC50 (PI3 K Alpha; read-out: PI3K Alpha IC50): < 1 µM; EC50 [1, 2]: < 25 µM; EC50 (A2780 cells; A2780 cells): < 25 µM

Question: Which EC50 [1, 3] does the source give for CC(=O)Nc1nc2ccc(-c3cnc(N)nc3)cc2s1 [Example 2-1, N-[6-(2-Amino-pyrimidin-5-yl)-benzothiazol-2-yl]-acetamide] here?
Answer: < 1 µM

Question: What about the EC50 (A2780 cells; A2780 cells, 72 hrs) of the same compound?
Answer: < 10 µM

Question: Which EC50 [1, 3] does the source give for CC(=O)Nc1nc2ccc(-c3ccc(N)nc3)cc2s1 [Example 2-2, N-[6-(6-Amino-pyridin-3-yl)-benzothiazol-2-yl]-acetamide] here?
Answer: < 1 µM

Question: And the EC50 (A2780 cells; A2780 cells, 72 hrs)?
Answer: < 10 µM

Question: Which results are given for COC(=O)Nc1nc2ccc(-c3ccc(N)nc3)cc2s1 [Example 2-3, [6-(6-Amino-pyridin-3-yl)-benzothiazol-2-yl]-carbamic acid methyl ester]?
Answer: IC50 (PI3 K Alpha; [4]): < 1 µM; EC50 [1, 3]: < 1 µM; EC50 (A2780 cells; A2780 cells, 72 hrs): < 10 µM

Question: CC(=O)Nc1nc2ccc(-c3cnc(N)c(C)c3)cc2s1 [Example 2-4, N-[6-(6-Amino-5-methyl-pyridin-3-yl)-benzothiazol-2-yl]-acetamide] was tested. Which EC50 [1, 3] did it give?
Answer: < 1 µM

Question: And the EC50 (A2780 cells; A2780 cells, 72 hrs)?
Answer: < 10 µM

Question: What does the source list for Nc1ccc(-c2ccc3nc(NC(=O)CCCN4CCCCC4)sc3c2)cn1 [Example 2-5, N-[6-(6-Amino-pyridin-3-yl)-benzothiazol-2-yl]-4-piperidin-1-yl-butyramide]?
Answer: EC50 [1, 3]: < 1 µM; EC50 (A2780 cells; A2780 cells, 72 hrs): < 10 µM

Question: Which results are given for CC(=O)Nc1nc2ccc(-c3cnc(N)c(F)c3)cc2s1 [Example 2-6, N-[6-(6-Amino-5-fluoro-pyridin-3-yl)-benzothiazol-2-yl]-acetamide]?
Answer: IC50 (PI3 K Alpha; [4]): < 1 µM; EC50 [1, 3]: < 1 µM; EC50 (A2780 cells; A2780 cells, 72 hrs): < 10 µM

Question: What does the source list for CCCNc1ccc(-c2ccc3nc(NC(C)=O)sc3c2)cn1 [Example 2-7, N-[6-(6-Propylamino-pyridin-3-yl)-benzothiazol-2-yl]-acetamide]?
Answer: IC50 (PI3 K Alpha; [4]): < 1 µM; EC50 [1, 3]: < 1 µM; EC50 (A2780 cells; A2780 cells, 72 hrs): < 25 µM

Question: For CC(=O)Nc1nc2ccc(-c3cnc(N)c(C(F)(F)F)c3)cc2s1 [Example 2-8, N-[6-(6-Amino-5-trifluoromethyl-pyridin-3-yl)-benzothiazol-2-yl]-acetamide], which EC50 [1, 3] is on record?
Answer: < 1 µM

Question: What about the EC50 (A2780 cells; A2780 cells, 72 hrs) of the same compound?
Answer: < 1 µM

Question: With COc1cc(-c2ccc3nc(NC(C)=O)sc3c2)cnc1N [Example 2-9, N-[6-(6-Amino-5-methoxy-pyridin-3-yl)-benzothiazol-2-yl]-acetamide] as the compound, how does the EC50 ([1]; A2780, 1 h, read-out: A2780 pAKT473 EC50) read?
Answer: < 1 µM

Question: What about the EC50 (A2780 cells; A2780, 72 h) of the same compound?
Answer: < 1 µM

Question: Which IC50 (PI3 K Alpha; [4]) does the source give for Nc1ccc(-c2ccc3nc(NC(=O)CCCN4CCOCC4)sc3c2)cn1 [Example 2-10, N-[6-(6-Amino-pyridin-3-yl)-benzothiazol-2-yl]-4-morpholin-4-yl-butyramide] here?
Answer: < 1 µM

Question: What about the EC50 [1, 3] of the same compound?
Answer: < 1 µM

Question: And the EC50 (A2780 cells; A2780 cells, 72 hrs)?
Answer: < 25 µM

Question: What does the source list for Nc1ncc(-c2ccc3nc(NC(=O)CCCN4CCOCC4)sc3c2)cc1C(F)(F)F [Example 2-12, N-[6-(6-Amino-5-trifluoromethyl-pyridin-3-yl)-benzothiazol-2-yl]-4-morpholin-4-yl-butyramide]?
Answer: EC50 [1, 3]: < 1 µM; EC50 (A2780 cells; A2780 cells, 72 hrs): < 10 µM

Question: What does the source list for Nc1ncc(-c2ccc3nc(NC(=O)CCCN4CCCCC4)sc3c2)cc1C(F)(F)F [Example 2-21, N-[6-(6-Amino-5-trifluoromethyl-pyridin-3-yl)-benzothiazol-2-yl]-4-piperidin-1-yl-butyramide]?
Answer: EC50 [1, 3]: < 1 µM; EC50 (A2780 cells; A2780 cells, 72 hrs): < 10 µM

Question: CC(=O)Nc1cn2cc(-c3cnc(N)c(C(F)(F)F)c3)ccc2n1 [Example 5, N-[6-(6-Amino-5-trifluoromethyl-pyridin-3-yl)-imidazo[1,2-a]pyridin-2-yl]-acetamide] was tested. Which EC50 [1, 2] did it give?
Answer: < 1 µM

Question: Which EC50 [1, 2] does the source give for COc1cc(-c2ccc3nc(NC(C)=O)cn3c2)cnc1N [Example 6, N-[6-(6-Amino-5-methoxy-pyridin-3-yl)-imidazo[1,2-a]pyridin-2-yl]-acetamide] here?
Answer: < 1 µM

Question: Which EC50 [1, 2] does the source give for CC(=O)Nc1cn2nc(-c3cnc(N)c(C(F)(F)F)c3)ccc2n1 [Example 16, N-[6-(6-Amino-5-trifluoromethyl-pyridin-3-yl)-imidazo[1,2-b]pyridazin-2-yl]-acetamide] here?
Answer: < 1 µM

Question: With COc1cc(-c2ccc3nc(NC(C)=O)cn3n2)cnc1N [Example 21, N-[6-(6-Amino-5-methoxy-pyridin-3-yl)-imidazo[1,2-b]pyridazin-2-yl]-acetamide] as the compound, how does the EC50 [1, 2] read?
Answer: < 1 µM

Question: CC(=O)Nc1cn2cc(-c3cnc(N)c(OC(C)C)n3)ccc2n1 [Example 54, N-(6-(5-amino-6-isopropoxy-pyrazin-2-yl)imidazo[1,2-a]pyridin-2-yl)acetamide] was tested. Which EC50 [1, 2] did it give?
Answer: < 1 µM

Question: CC(=O)Nc1cn2cc(-c3cnc(N)c(O[C@@H](C)C(F)(F)F)n3)ccc2n1 [Example 55, (S)-N-(6-(5-amino-6-(1,1,1-trifluoropropan-2-yloxy)pyrazin-2-yl)imidazo[1,2-a]pyridin-2-yl)acetamide] was tested. Which EC50 [1, 2] did it give?
Answer: < 1 µM

Question: CC(=O)Nc1cn2cc(-c3cnc(N)c(OCC(F)(F)F)n3)ccc2n1 [Example 56, N-(6-(5-amino-6-(2,2,2-trifluoroethoxy)pyrazin-2-yl)imidazo[1,2-a]pyridin-2-yl)acetamide] was tested. Which EC50 [1, 2] did it give?
Answer: < 1 µM

Question: With COCCOc1nc(-c2ccc3nc(NC(C)=O)cn3c2)cnc1N [Example 61, N-(6-(5-amino-6-(2-methoxyethoxy)pyrazin-2-yl)imidazo[1,2-a]pyridin-2-yl)acetamide] as the compound, how does the EC50 [1, 2] read?
Answer: < 1 µM

Question: For CCOc1nc(-c2ccc3nc(NC(C)=O)cn3c2)cnc1N [Example 62, N-(6-(5-amino-6-ethoxypyrazin-2-yl)imidazo[1,2-a]pyridin-2-yl)acetamide], which EC50 [1, 2] is on record?
Answer: < 1 µM

Question: Which EC50 [1, 2] does the source give for CC(=O)Nc1cn2cc(-c3cnc(N)c(O[C@H](C)C(F)(F)F)n3)ccc2n1 [Example 70, (R)-N-(6-(5-amino-6-(1,1,1-trifluoropropan-2-yloxy)pyrazin-2-a]pyridin-2-yl)acetamide] here?
Answer: < 1 µM

Question: Which EC50 [1, 2] does the source give for COc1nc(-c2ccc3nc(NC(C)=O)cn3c2)cnc1N [Example 101, N-(6-(5-amino-6-methoxypyrazin-2-yl)imidazo[1,2-a]pyridin-2-yl)acetamide] here?
Answer: < 1 µM

Question: With COCCOc1cc(-c2ccc3nc(NC(C)=O)cn3n2)cnc1N [Example 106, N-(6-(6-amino-5-(2-methoxyethoxy)pyridin-3-yl)imidazo[1,2-b]pyridazin-2-yl)acetamide] as the compound, how does the EC50 [1, 2] read?
Answer: < 1 µM

Question: For CCOc1cc(-c2ccc3nc(NC(C)=O)cn3c2)cnc1N [Example 111, N-(6-(6-amino-5-ethoxypyridin-3-yl)imidazo[1,2-a]pyridin-2-yl)acetamide], which EC50 [1, 2] is on record?
Answer: < 1 µM

Question: CCOc1cc(-c2ccc3nc(NC(C)=O)cn3n2)cnc1N [Example 119, N-(6-(6-amino-5-ethoxypyridin-3-yl)imidazo[1,2-b]pyridazin-2-yl)acetamide] was tested. Which EC50 [1, 2] did it give?
Answer: < 1 µM

Question: With CC(=O)Nc1nc2ccc(-c3cnc(N)c(C(F)(F)F)c3)cn2c1CCc1ccccc1 [Example 254, N-(6-(6-amino-5-(trifluoromethyl)pyridin-3-yl)-3-phenethyl-imidazo[1,2-a]pyridin-2-yl)acetamide] as the compound, how does the IC50 (PI3 K Alpha; read-out: PI3K Alpha IC50) read?
Answer: < 1 µM

Question: And the EC50 (A2780 cells; A2780 cells)?
Answer: < 10 µM

Question: How did the IC50 (PI3 K Alpha; read-out: PI3K Alpha IC50) turn out when CCOC(=O)CC(=O)Nc1cn2cc(-c3cnc(N)c(C(F)(F)F)c3)ccc2n1 [Example 255, ethyl 3-(6-(6-amino-5-(trifluoromethyl)pyridin-3-yl)imidazo[1,2-a]pyridin-2-ylamino)-3-oxopropanoate] was run?
Answer: < 1 µM

Question: What about the EC50 (A2780 cells; A2780 cells) of the same compound?
Answer: < 10 µM

Question: How did the IC50 (PI3 K Alpha; read-out: PI3K Alpha IC50) turn out when Nc1ncc(-c2ccc3nc(NC(=O)C4CNC4)cn3c2)cc1C(F)(F)F [Example 256, N-(6-(6-amino-5-(trifluoromethyl)pyridin-3-yl)imidazo[1,2-a]pyridin-2-yl)azetidine-3-carboxamide] was run?
Answer: < 1 µM

Question: And the EC50 (A2780 cells; A2780 cells)?
Answer: < 10 µM

Question: Which IC50 (PI3 K Alpha; read-out: PI3K Alpha IC50) does the source give for COC(=O)C1CCN(C(=O)Nc2cn3cc(-c4cnc(N)c(C(F)(F)F)c4)ccc3n2)C1 (stereo not drawn) [Example 257, methyl 1-(6-(6-amino-5-(trifluoromethyl)pyridin-3-yl)imidazo[1,2-a]pyridin-2-ylcarbamoyl) pyrrolidine-3-carboxylate] here?
Answer: < 1 µM

Question: What about the EC50 (A2780 cells; A2780 cells) of the same compound?
Answer: < 10 µM

Question: What does the source list for Nc1ncc(-c2ccc3nc(NC(=O)[C@@H]4CCCCN4)cn3c2)cc1C(F)(F)F [Example 283, (S)-N-(6-(6-amino-5-(trifluoromethyl)pyridin-3-yl)imidazo[1,2-a]pyridin-2-yl)piperidine-2-carboxamide]?
Answer: EC50 [1, 2]: < 1 µM; EC50 (A2780 cells; A2780 cells): < 10 µM
